# Experimental data published in EP2719696A1, “NOVEL KINASE INHIBITORS” (Asinex Limited, priority 2011, dated 2012).
# Read-outs that look alike come from different tables or passages of the source.
# What was measured:
# U251 = experiment: MTT proliferation / cytotoxicity assay; format: cell-based, human; details: Homo sapiens, U-251, 72 h, glioblastoma cell line
# Protocol: (§1) Cell culture. The human cancer cell lines A172, A375, A2780 and U251 were purchased from the American Type Culture Collection. All cells were routinely maintained in DMEM containing 10% fetal bovine serum (Omega Scientific), at 37°C in 5% C02.
# (§2) Proliferation assay Inhibition of cell A172, A375, A2780 and U251 cell proliferation was assessed by a MTT assay (MTT = Thiazolyl Blue Tetrazolium Bromide) . Cells were inoculated into 96-well microtiter plates containing 0.5% fetal calf serum and incubated at 37°C, 5% CO2, 95% air, and 100% relative humidity for 24 h prior to addition of testing compounds. Following compounds addition, the plates were incubated for an additional 72 h before processing to measure the cell population. Each compound was tested at eight different concentrations in triplicate, as was a control sample. Growth inhibition of 50% (IC50) is calculated by analysis of the data in Prizm3.4 software.
# (§3) Table 8 lists IC50 values for inhibition of growth of several cancer cell lines, including the glioblastoma cell lines A172 and U251, measured in a MTT cytotoxicity assay. Table 8. Data of cytotoxicity assay (MTT) for several cancer cell lines, IC50 [µM]
# A2780 = experiment: MTT proliferation / cytotoxicity assay; format: cell-based, human; details: Homo sapiens, A2780, 72 h
# Protocol: as §1, §2, §3
# A172 = experiment: MTT proliferation / cytotoxicity assay; format: cell-based, human; details: Homo sapiens, A 172, 72 h, glioblastoma cell line
# Protocol: as §1, §2, §3
# A375 = experiment: MTT proliferation / cytotoxicity assay; format: cell-based, human; details: Homo sapiens, A-375, 72 h
# Protocol: as §1, §2, §3
# [1] = In vivo PK study, determination of brain-to-plasma ratio; details: mouse, SHK mice, PO dosing 5mg/kg, 20% water solution of HPβCD, read-out: brain-to-plasma concentration ratio
# Protocol: Male SHK mice (22-25 g) were dosed with 5 mg/kg of related compounds as a single injection via oral gavage (formulated in 20% water solution of HPβCD). Blood samples and whole brains were collected from three mice at each of eight collection time points of 0.05, 0.25, 0.5, 1, 2, 4, 8 and 24 h post dose. Plasma was collected from blood samples, and whole brain samples were homogenized in three volumes of water. Both tissues were analyzed for concentrations of related compounds by liquid chromatography-mass spectrometry (LC-MS/MS). Table 9. brain-to-plasma concentration ratios in SHK mice after PO dosing 5mg/kg for several selected examples
# PDGFR-α = PDGFR-α (Homo sapiens, UniProt P16234); experiment: Kinase inhibition assay (ELISA); format: biochemical; details: 1 µM ATP
# Chain of PDGFR-α (P16234 24-1089, species assumed): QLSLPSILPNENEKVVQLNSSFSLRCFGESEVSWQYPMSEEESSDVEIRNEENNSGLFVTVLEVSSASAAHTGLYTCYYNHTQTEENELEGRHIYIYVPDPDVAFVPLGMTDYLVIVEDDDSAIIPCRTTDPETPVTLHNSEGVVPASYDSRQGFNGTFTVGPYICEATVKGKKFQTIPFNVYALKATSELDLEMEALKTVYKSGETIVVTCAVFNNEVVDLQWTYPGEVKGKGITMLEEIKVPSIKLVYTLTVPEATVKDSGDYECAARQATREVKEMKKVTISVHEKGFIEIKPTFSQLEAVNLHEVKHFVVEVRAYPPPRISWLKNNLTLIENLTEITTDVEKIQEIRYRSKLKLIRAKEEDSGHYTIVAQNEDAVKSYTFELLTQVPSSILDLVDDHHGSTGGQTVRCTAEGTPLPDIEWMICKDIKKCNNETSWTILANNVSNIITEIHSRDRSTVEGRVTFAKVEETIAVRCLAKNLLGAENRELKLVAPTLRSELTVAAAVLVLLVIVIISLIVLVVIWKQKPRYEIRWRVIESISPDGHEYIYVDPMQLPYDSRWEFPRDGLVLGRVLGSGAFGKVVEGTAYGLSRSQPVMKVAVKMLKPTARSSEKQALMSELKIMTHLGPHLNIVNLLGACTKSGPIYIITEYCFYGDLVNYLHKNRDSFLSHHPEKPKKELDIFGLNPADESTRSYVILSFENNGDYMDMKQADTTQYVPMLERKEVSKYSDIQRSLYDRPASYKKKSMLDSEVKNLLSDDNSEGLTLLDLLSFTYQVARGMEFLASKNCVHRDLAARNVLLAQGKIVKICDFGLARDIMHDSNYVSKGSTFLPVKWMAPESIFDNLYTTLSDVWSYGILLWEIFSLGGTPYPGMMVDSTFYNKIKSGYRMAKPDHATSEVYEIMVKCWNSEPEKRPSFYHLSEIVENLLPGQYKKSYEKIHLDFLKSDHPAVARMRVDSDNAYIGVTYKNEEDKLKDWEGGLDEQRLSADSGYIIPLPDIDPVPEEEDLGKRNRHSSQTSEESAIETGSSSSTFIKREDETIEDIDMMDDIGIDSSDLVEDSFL
# Protocol: (§4) To determine the interaction of our compounds with tyrosine kinases: PDGFR-α, cKIT, PDGFR-β, VEGFR-2 we used enzyme-linked immunosorbent assay (ELISA).
# (§5) Determination plates preparation: The plates are processed by neutravidine for 2 h at 30°C. After washing thrice with TBS/0.1% Tween-20 and blocking with 1% BSA/TBS for 1 h at room temperature (RT) 96-well microtiter plates were washed thrice with TBS/0.1% Tween-20 again.
# (§6) Reaction: After addition test compounds (in DMSO, DMSO final concentration - 5%) to reaction buffer (20 mM HEPES, pH 7.5, 15 mM MgCl2, 3 mM MnCl2, 2 mM DTT, 0.2 mM Na3VO4, 0.005% Triton X-100; PDGFR-α,: 0.05 µg/ml, 0.5 µg/ml Poly(G,T)-biotin; PDGFR-β: 0.05 µg/ml, 1 µg/ml Poly(G,T)-biotin; c-KIT: 0.03 µg/ml, 0.15 µg/ml Poly(G,T)-biotin; VEGFR-2: 0.07 µg/ml, 0.05 µg/ml Poly(G,T)-biotin) and preincubation of reaction for 10 min at RT and intensive agitation, ATP solution (PDGFR-α, - 1 µM, PDGFR-β - 0.5 µM, c-KIT - 60 µM, VEGFR-2: - 1.5 µM ATP in reaction buffer per well) was added to initiate reaction. Following incubation of mixture for 1 h at 30°C and intensive agitation the reaction was stopped by stop solution (20 mM HEPES, pH 7.5, 50 mM EDTA).
# (§7) Kinase activity determination: The reaction mixture was transferred to determination plate. After mix incubation for 1 h at RT and intensive agitation the plates were washed thrice with TBS/0.1% Tween-20. Following mouse monoclonal 0.05 µg/ml Anti-p-Tyr (PY20) HRP antibodies (Santa Cruz Biotechnology) in PBS/BSA were added for 1 h at RT and intensive agitation. After washing, antibody binding was detected by tetramethylbenzidine (TMB) color development (Sigma). Measurement of A450 nm was carried out after addition of H2SO4
# cKIT = cKIT (Homo sapiens, UniProt P10721); experiment: Kinase inhibition assay (ELISA); format: biochemical; details: 60 µM ATP
# Chain of cKIT (P10721 26-976): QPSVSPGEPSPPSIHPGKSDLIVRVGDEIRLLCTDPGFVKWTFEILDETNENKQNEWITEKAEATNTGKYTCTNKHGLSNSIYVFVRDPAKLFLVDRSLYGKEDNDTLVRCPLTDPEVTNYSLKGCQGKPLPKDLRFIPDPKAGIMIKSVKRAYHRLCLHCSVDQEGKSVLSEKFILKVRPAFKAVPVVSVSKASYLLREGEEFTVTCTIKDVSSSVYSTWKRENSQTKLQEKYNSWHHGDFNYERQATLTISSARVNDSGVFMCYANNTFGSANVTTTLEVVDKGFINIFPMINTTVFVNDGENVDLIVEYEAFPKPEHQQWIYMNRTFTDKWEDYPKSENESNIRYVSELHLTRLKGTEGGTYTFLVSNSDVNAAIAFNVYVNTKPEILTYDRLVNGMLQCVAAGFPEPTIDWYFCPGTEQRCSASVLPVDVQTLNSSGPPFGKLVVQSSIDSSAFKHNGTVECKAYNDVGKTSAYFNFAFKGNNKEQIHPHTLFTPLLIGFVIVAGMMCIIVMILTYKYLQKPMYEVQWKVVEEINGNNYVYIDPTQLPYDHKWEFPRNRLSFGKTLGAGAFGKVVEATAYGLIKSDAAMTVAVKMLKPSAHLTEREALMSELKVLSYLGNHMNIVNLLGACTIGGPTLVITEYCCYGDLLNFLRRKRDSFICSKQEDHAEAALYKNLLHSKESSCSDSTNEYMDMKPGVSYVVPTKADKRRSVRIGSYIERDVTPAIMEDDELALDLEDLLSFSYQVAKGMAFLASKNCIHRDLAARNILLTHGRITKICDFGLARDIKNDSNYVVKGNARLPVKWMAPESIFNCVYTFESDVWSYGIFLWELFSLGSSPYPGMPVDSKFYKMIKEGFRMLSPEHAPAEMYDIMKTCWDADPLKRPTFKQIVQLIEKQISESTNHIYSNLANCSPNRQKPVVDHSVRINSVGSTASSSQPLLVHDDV
# Protocol: as §4, §5, §6, §7
# VEGFR-2 = VEGFR-2 (Homo sapiens, UniProt P35968); experiment: Kinase inhibition assay (ELISA); format: biochemical; details: 1.5 µM ATP
# Chain of VEGFR-2 (P35968 20-1356, species assumed): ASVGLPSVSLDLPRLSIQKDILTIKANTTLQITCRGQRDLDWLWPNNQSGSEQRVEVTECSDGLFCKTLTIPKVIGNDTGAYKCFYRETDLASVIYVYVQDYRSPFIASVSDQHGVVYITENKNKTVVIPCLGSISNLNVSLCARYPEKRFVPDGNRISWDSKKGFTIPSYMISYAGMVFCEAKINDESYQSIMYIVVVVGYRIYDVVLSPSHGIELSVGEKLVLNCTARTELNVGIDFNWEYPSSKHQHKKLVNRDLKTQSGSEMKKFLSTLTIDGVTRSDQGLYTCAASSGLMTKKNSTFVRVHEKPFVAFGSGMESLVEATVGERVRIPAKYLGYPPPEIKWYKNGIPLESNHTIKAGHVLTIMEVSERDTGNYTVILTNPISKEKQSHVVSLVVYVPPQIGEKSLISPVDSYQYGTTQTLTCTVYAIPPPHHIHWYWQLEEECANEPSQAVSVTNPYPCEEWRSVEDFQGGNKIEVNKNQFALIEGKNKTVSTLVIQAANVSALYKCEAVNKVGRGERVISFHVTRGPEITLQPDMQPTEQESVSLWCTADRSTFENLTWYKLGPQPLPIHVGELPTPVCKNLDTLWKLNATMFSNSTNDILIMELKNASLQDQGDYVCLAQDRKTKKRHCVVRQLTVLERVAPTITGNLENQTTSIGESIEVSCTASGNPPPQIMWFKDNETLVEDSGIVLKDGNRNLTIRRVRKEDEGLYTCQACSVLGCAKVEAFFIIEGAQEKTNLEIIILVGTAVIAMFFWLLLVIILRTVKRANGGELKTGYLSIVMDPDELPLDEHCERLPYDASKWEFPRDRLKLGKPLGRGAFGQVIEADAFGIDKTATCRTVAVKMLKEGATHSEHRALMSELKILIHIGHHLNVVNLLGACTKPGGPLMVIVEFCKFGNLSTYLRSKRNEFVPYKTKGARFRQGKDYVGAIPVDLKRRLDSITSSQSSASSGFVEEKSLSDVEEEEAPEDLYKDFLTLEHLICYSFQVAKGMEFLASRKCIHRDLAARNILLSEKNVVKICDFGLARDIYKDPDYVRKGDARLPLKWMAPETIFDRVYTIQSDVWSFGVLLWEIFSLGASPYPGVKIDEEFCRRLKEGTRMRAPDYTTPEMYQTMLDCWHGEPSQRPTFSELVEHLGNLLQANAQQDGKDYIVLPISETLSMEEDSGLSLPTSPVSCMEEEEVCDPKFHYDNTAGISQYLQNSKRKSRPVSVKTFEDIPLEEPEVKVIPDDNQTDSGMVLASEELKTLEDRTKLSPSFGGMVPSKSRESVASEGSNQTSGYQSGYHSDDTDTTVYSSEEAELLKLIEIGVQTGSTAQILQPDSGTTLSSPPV
# Protocol: as §4, §5, §6, §7
SMILES,"Kp ([1]; male, brain/plasma)",IC50 (PDGFR-α) [nM],IC50 (cKIT) [nM],IC50 (VEGFR-2) [nM],IC50 (U251) [µM],IC50 (A2780) [µM],IC50 (A172) [µM],IC50 (A375) [µM],Kp ([1]; brain)
"OCCN1CCC(Cc2ccnc(Nc3ncc(-c4ccc(F)cc4)s3)c2)CC1 [Example 003, 2-(4-{2-[5-(4-Fluoro-phenyl)-thiazol-2-ylamino]-pyridin-4-ylmethyl}-piperidin-1-yl)-ethanol]",3.66,< 10,> 10,> 10,> 10,> 1,≤ 1,> 1,–
"Fc1ccc(-c2cnc(Nc3cc(CC4CNCCOC4)ccn3)s2)cc1 (centres unmarked) [Example 009, [5-(4-Fluoro-phenyl)-thiazol-2-yl]-(4-[1,4]oxazepan-6-ylmethyl-pyridin-2-yl)-amine]",10.3,< 10,< 10,> 10,> 10,> 1,> 10,> 1,–
"OCCN1CCOCC(Cc2ccnc(Nc3ncc(-c4ccc(F)cc4)s3)c2)C1 (centres unmarked) [Example 011, 2-(6-{2-[5-(4-Fluoro-phenyl)-thiazol-2-ylamino]-pyridin-4-ylmethyl}-[1,4]oxazepan-4-yl)-ethanol]",12.7,< 10,> 10,> 10,> 10,> 1,> 1,> 1,–
OCCN1CCC(c2ccnc(Nc3ncc(-c4ccc(F)cc4)s3)c2)CC1 [Example 035],–,< 10,< 10,< 10,> 1,> 1,> 1,> 1,18.5

# More lines, main results first:
"Kp ([1]; male, brain/plasma)",IC50 (PDGFR-α) [nM],IC50 (cKIT) [nM],IC50 (VEGFR-2) [nM],SMILES,IC50 (U251) [µM],IC50 (A2780) [µM],IC50 (A172) [µM],IC50 (A375) [µM],Kp ([1]; brain)
0.59,> 100,> 10,> 1000,"Fc1ccc(-c2cnc(Nc3cccc(CC4CNCCOC4)n3)s2)cc1 (centres unmarked) [Example 013, [5-(4-Fluoro-phenyl)-thiazol-2-yl]-(6-[1,4]oxazepan-6-ylmethyl-pyridin-2-yl)-amine]",> 1,< 1,> 1,≤ 1,–
0.96,< 10,< 10,> 10,"Fc1ccc(-c2cnc(Nc3cc(CC4CNCCNC4)ccn3)s2)cc1 [Example 019, (4-[1,4]Diazepan-6-ylmethyl-pyridin-2-yl)-[5-(4-fluoro-phenyl)-thiazol-2-yl]-amine]",> 10,> 1,> 10,> 1,–
0.81,< 10,> 10,> 10,"Cc1nc(Nc2ncc(-c3ccccc3)s2)cc(C2CCN(CCO)CC2)n1 [Example 032, 2-{4-[2-Methyl-6-(5-phenyl-thiazol-2-ylamino)-pyrimidin-4-yl]-piperidin-1-yl}-ethanol]",> 10,≤ 1,> 1,–,–
1.38,> 100,> 100,> 100,"OCCN1CCC(c2ccnc(Nc3ncc(CC(F)(F)F)s3)c2)CC1 [Example 040, 2-{2'-[5-(2,2,2-Trifluoro-ethyl)-thiazol-2-ylamino]-3,4,5,6-tetrahydro-2H-[4,4']bipyridinyl-1-yl}-ethanol]",> 10,> 10,≤ 1,> 1,–
0.19,< 10,> 10,> 100,"O=C(Nc1ccccc1Cl)c1cnc(Nc2cc(C3CCN(CCO)CC3)ccn2)s1 [Example 044, 2-[1'-{2-Hydroxy-ethyl)-1',2',3',4',5',6' -hexahydro-[4,4']bipyridinyl-2-ylamino]-thiazole-5-carboxylic acid (2-chlorophenyl)-amide]",–,–,–,> 1,–
